Source: patent publication US9371265B2, “Compositions and methods related to inhibitors of JAK kinase” (EP PHARMA, INC., priority 2012, dated 2016)

How the values were obtained:
normal human naïve PBMCs = experiment: Naive PBMC viability (MTS); type: cell-based; conditions: 72 hours, concentrations giving complete loss of JAK3-dependent cell viability (0-10 μM)
Description: FIGS. 2A-2F. Selective inhibition of JAK3 by EP009 results in loss of JAK3-dependent tumor cell line viability with no detectable off-target effects in key cell types. (A) Chemical structure of EP009 (M.W. 224.34). (B) Kit225 or (C) BaF/3 cells cultured in the presence of IL-2 or IL-3, respectively, were treated with vehicle (PBS; lane a) or increasing amounts of EP009 (0-50 μM; lanes b-h) for 12 hours. Cells were then lysed, clarified, and immunoprecipitated (IP) with anti-JAK3 (α-JAK3) or anti-JAK2 (α-JAK2), and subjected to Western blot (WB) analysis with anti-phosphotyrosine (α-pY). Blots were stripped and reprobed with corresponding antibody to verify equivalent protein loading. […] (E) Kit225 or BaF/3 cells were cultured with increasing amounts of EP009 (0-10 μM) for 72 hours and cell viability measured with the MTS tetrazolium salt assay. Values represent mean absorbance (OD490-OD650 nm) normalized to vehicle (PBS) treated control cells, while error bars represent the standard deviation (n=3). (F) HEK293, HEPG2, or naïve primary human PBMCs were cultured with increasing amounts of EP009 (0-10 μM) for 72 hours and cell viability measured with the MTS tetrazolium salt assay. Values represent mean absorbance (OD490-OD650 nm) normalized to vehicle (PBS) treated control cells, while error bars represent the standard deviation (n=3). […]

caspase 3 = experiment: Caspase 3 activation in SU-DHL-1 cells (Luminex multiplex); type: cell-based, human; conditions: 24 hours, dose-dependent
Description: FIGS. 7A-7C. EP009 reduces ALCL cell viability through induction of caspase 3 mediated apoptosis. (A) SUP-M2, SU-DHL-1 or H2228 cells were cultured with increasing amounts of EP009 (0-10 μM) for 72 hours and cell viability measured with the MTS tetrazolium salt assay. Values represent mean absorbance (OD490-OD650 nm) normalized to vehicle (PBS) treated control cells, while error bars represent the standard deviation (n=3). (B) SU-DHL-1 cells were treated with vehicle (PBS) or increasing amounts of EP009 (0-50 μM) for 24 hours. Cells were then lysed, clarified, and subjected to Luminex multiplex analysis to detect activated caspase 3 and (C) cleaved PARP. Values represent MFI normalized to corresponding GAPDH MFI, while error bars represent the standard deviation (n=2). Representative data from three independent experiments are shown. Statistical significance was determined using Student's t-test. (*, p<0.05).
The MILLIPLEX MAP 8-plex Multi-Pathway Signaling Phosphoprotein kit (Millipore) was used to detect phosphorylated ERK1/2 (Thr185/Tyr187), STAT3 (Ser727), JNK1/2 (Thr183/Tyr185), p70 S6 kinase (Thr412), IκBα (Ser32), STAT5A/B (Tyr694/699), CREB (Ser133), and p38 (Thr180/Tyr182). The MILLIPLEX MAP 5-plex STAT Phosphoprotein kit (Millipore) was used to detect phosphorylated STAT1 (Tyr701), STAT2 (Tyr690), STAT3 (Tyr705), STAT5A/B (Tyr694/699), and STAT6 (Tyr641). […]

CDK2 = CDK2 (Homo sapiens, UniProt P24941); experiment: Kinase panel: CDK2; type: biochemical; conditions: 10 μM EP009
Description: (§1) Achieving JAK3 selectivity remains a significant challenge in the development of new small molecules for the treatment of cancer and immune-derived diseases. As such, the inventors employed cell-based screening assays of small-molecule libraries based upon the chemical scaffold of the established JAK3 inhibitor NC1153 (Stepkowski et al., J Immunol. (2005), 175(7):4236-4246) EP009 (FIG. 2A) was selected as a lead compound due to improved intrinsic stability (>95% purity in various solvents at 37° C. for 24 hours; FIG. 3) and high-degree of JAK3 selectivity. To test JAK3 versus JAK2 specificity of EP009, the IL-2/JAK3-dependent Kit225, and IL-3/JAK2-dependent BaF/3 cell lines were used. Kit225 and BaF/3 cells growing in the presence of IL-2 or IL-3, respectively, were treated with ascending concentrations of EP009 for 12 hours and cellular JAK3 and JAK2 tyrosine phosphorylation levels detected by Western blot analysis (FIGS. 2B and 2C). Following densitometric analysis, EP009 was determined to dose-dependently reduce IL-2-mediated JAK3 tyrosine phosphorylation with a cellular 50% inhibitory concentration (IC50) between 10 and 20 μM (FIG. 2B). […] To globally evaluate specificity, the inhibitory activity of EP009 was measured against a panel of protein kinases distributed throughout the kinome using the scanEDGE profiling service (KINOMEscan). […]

INSR = INSR (Homo sapiens, UniProt P06213); experiment: Kinase panel: INSR; type: biochemical; conditions: 10 μM EP009
INSR, sequence (P06213 28-1382): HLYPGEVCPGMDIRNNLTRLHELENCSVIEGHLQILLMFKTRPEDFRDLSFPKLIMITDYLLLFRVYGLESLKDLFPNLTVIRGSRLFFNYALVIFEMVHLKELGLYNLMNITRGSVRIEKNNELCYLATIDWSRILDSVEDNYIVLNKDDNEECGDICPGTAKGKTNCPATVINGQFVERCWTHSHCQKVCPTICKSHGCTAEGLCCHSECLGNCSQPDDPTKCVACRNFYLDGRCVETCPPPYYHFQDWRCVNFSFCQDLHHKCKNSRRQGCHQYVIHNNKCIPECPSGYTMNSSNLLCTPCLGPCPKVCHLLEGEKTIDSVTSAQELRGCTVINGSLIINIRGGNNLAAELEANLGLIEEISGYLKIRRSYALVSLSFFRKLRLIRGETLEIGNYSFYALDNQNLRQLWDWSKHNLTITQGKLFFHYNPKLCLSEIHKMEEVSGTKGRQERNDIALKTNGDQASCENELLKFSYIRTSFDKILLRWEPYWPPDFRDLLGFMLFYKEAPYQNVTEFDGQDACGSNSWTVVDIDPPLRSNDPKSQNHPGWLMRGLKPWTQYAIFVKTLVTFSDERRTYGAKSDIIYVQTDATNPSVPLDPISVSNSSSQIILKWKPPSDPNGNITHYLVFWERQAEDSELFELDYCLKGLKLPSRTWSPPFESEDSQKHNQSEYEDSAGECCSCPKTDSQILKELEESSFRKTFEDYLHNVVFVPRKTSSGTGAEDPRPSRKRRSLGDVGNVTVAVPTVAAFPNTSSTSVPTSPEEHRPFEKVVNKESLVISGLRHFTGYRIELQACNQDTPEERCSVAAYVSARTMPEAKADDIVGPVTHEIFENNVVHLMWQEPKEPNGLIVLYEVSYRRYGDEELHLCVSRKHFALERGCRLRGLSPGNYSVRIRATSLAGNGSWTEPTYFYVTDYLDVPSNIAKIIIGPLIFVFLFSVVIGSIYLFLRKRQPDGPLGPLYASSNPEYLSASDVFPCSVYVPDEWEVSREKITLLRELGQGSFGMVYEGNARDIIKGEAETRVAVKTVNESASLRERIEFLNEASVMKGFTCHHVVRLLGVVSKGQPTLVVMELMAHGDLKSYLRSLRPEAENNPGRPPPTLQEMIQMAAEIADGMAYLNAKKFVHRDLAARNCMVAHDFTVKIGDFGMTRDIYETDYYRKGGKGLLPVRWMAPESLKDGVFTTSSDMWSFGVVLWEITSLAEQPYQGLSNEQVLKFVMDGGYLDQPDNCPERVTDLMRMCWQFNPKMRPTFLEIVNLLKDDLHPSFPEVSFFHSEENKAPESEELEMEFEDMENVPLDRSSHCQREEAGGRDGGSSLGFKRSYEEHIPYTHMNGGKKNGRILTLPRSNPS
Description: as §1

With C=C1CCCCCCCCCC(CO)C1=O (stereo not shown) [EP009, 2-(Hydroxymethyl)-12-methylenecyclododecanone] the “effect on normal human naïve PBMC viability” value (normal human naïve PBMCs) was “no detectable loss of cell viability”, the caspase-3 activation (caspase 3) was “increased” and the “Kinase Activity (% of Control)” value (CDK2) was 98 % of Control. For the same compound, the “Kinase Activity (% of Control)” value (INSR) was 100 % of Control.
